Legend:
[1] = tested on: release of TNFα from cells of nasal polyps; test: Inhibition of the release of TNFα from cells of nasal polyps (anti-IgE stimulated, ELISA); assay type: cell-based; conditions: Homo sapiens, anti-IgE stimulated nasal polyp cells
Protocol: The experimental arrangement corresponds essentially to the method described by Campbell, A. M. and J. Bousquet (Anti-allergic activity of H1-blockers, Int. Arch. Allergy Immunol., 1993, 101, 308–310). Nasal polyps form the starting material (material from patients, who had been subjected to a surgical treatment).
The tissue is washed with RPMI 1640 and subsequently digested with protease (2.0 mg/mL), collagenase (1.5 mg/mL), hyaluronidase (0.75 mg/mL), and DNAse (0.05 mg/mL) for two hours at 37° C. (1 g of tissue and 4 mL of RPMI 1640 with enzymes). The cells obtained, a mixture of epithelial cells, monocytes, macrophages, lymphocytes, fibroblasts and granulocytes, are filtered and washed by being centrifuged repeatedly in culture solution and sensitized passively by the addition of human IgE and the cell suspension is brought to a concentration of 2 million cells/mL in RPMI 1640 (supplemented by antibiotics, 10% fetal calf serum, 2 mM of glutamine and 25 mM of Hepes). This suspension is distributed on six-well cell culture plates (1 ml/well). The cells are pre-incubated for 30 minutes with the test substances in different final concentrations and subsequently stimulated to release TNFα by the addition of anti-IgE (7.2 μg/mL). The maximum release into the culture medium takes place after about 18 hours. During this period, the cells are incubated at 37° C. and 5% carbon dioxide. The culture medium (supernatant) is recovered by centrifuging (five minutes at 4000 rpm) and kept at −70° C. until the cytokin is determined. The TNFα in the supernatant is determined with so-called sandwich ELISAs (basic material Pharmingen), with which cytokin concentrations ranging from 30 to 1000 pg/mL can be determined.
Cells, not stimulated with anti IgE, hardly produce any TNFα; on the other hand, stimulated cells secrete large amounts of TNFα, which can be reduced, for example, by PDE 4 inhibitors as a function of the dose. From the percentage inhibition (TNFα release by the cells, stimulated with anti IgE=100%) of the substances tested at different concentrations, the IC50 (concentration at 50% inhibition) is calculated.

[2] = tested on: Lewis Rats; test: Inhibition of the lipopolysaccharide (LPS)-induced lung neutrophilia; assay type: in vivo, rat; conditions: 1 mg/kg p.o., 2 h before LPS provocation; BAL 6 h after provocation
Protocol: The inhibition of pulmonary neutrophil infiltration by the inventive substances is tested on male Lewis Rats (250–350 g). On the day of the experiments, the animals are placed individually in open 1 L Plexiglas boxes, which are connected to a head-nose exposure device. The animals are exposed to an aerosol of a lipopolysaccharide suspension (100 μg LPS/mL of 0.1% hydroxylamine solution) in PBS (LPS provocation). The LPS/hydroxylamine aerosol is nebulized by a nebulizer (Bird Micronebulizer, Palm Springs Calif., USA), which is operated with compressed air (0.2 MPa). The exposure time is 40 minutes, normal controls being nebulized also for 40 minutes with an aerosol of 0.1% hydroxylamine solution in PBS.
Six hours after the LPS provocation, there is a maximum, massive migration of neutrophil granulocytes into the lungs of the animals. At this time, the animals are anesthetized with an excess of ethyl urethane (1.5 g/kg of body weight i.p.) and a bronchoalveolar lavage (BAL) with 3×4 mL of Hank's balance solution is carried out. The total cell count and the number of neutrophil granulocytes of the pooled BAL liquid are subsequently determined with an automatic cell differentiation instrument (Bayer Diagnostics Technicon HIE). For each animal, the neutrophiles (NEUTRO) in the BAL are calculated in millions/animal: NEUTRO/μl×BAL recovery (mL)=NEUTRO/animal.
For each test, 2 control groups were also run (nebulization with 0.1% hydroxylamine solution in PBS and nebulization with 100 μg LPS/mL of 0.1% hydroxylamine solution in PBS).
The percentage inhibition of the neutrophilia of the experimental group, treated with substance, was calculated according to the following formula: {((LPSC−SC)−(LPSD−SC))/(LPSC−SC)}×100%=% inhibition SC=vehicle-treated control group challenged with 0.1% hydroxylamine solution; LPSC=vehicle-treated control group challenged with LPS (100 μg/mL 0.1% hydroxylamine solution); LPSD=substance-treated experimental group challenged with LPS (100 μg/mL 0.1% hydroxylamine solution) […]

[3] = tested on: actively sensitized Brown Norway Rats; test: Inhibition of the late phase eosinophilia 48 hours after inhalative ovalbumin challenge; assay type: in vivo, rat; conditions: 2 h before allergen challenge, BAL 48 h after challenge
Protocol: The inhibition of pulmonary eosinophilia infiltration by the inventive substances is tested on male Brown Norway Rats (200–250 g), which had been actively sensitized against ovalbumin (OVA). The rats were sensitized by subcutaneous injections of a suspension of 10 μg OVA together with 20 mg of aluminum hydroxide as adjuvant in 0.5 mL of physiological salt solution per animal on days 1, 14 and 21. In addition, the animals at the same time received Bordetella pertussis vaccine dilution injected 0.25 mL i.p. per animal. On the 28th day of the experiment, the animals are placed individually in open 1 L Plexiglas boxes, which are connected to a head-nose exposure device. The animals are exposed to an aerosol of 1.0% ovalbumin suspension (allergen challenge). The ovalbumin aerosol is produced by a nebulizer (Bird Micronebulizer, Palm Springs Calif., USA), which is operated with compressed air (0.2 MPa). The exposure time is one hour, normal controls being nebulized also for one hour with an aerosol of 0.9% salt solution.
Forty-eight hours after the allergen challenge, there is a massive migration of eosinophilic granulocytes into the lungs of the animals. At this time, the animals are anesthetized with an excess of ethyl urethane (1.5 g/kg of body weight i.p.) and a bronchoalveolar lavage (BAL) with 3×4 mL of Hank's balance solution is carried out. The total cell count and the number of eosinophilic granulocytes of the pooled BAL liquid are subsequently determined with an automatic cell differentiation instrument (Bayer Diagnostics Technicon HIE). For each animal, the eosinophiles (EOS) in the BAL are calculated in millions/animal: EOS/μl×BAL recovery (mL)=EOS/animal.
For each test, 2 control groups were run (nebulization with physiological salt solution and nebulization with OVA solution).
The percentage inhibition of the eosinophilia of the experimental group, treated with substance, was calculated according to the following formula: {((OVAC−SC)−(OVAD−SC))/(OVAC−SC)}×100%=% inhibition (SC=vehicle-treated control group challenged with 0.9% salt solution; OVAC=vehicle-treated control group challenged with 1% ovalbumin suspension; OVAD=substance-treated experimental group challenged with 1% ovalbumin suspension)
The test substances are applied i.p. or orally as a suspension in 10% polyethylene glycol 300 and 0.5% 5-hydroxyethylcellulose for two hours before the allergen challenge. The control groups are treated with the vehicle in accordance with the application form of the test substance.

Structure (SMILES)	inhibition at 0.3 µM ([1]; concentration 0.3 μmole/L)	Inhibition of neutrophilia (table titled Inhibition of Eosinophilia) [2]	Inhibition of Eosinophilia ([3]; 10 mg/kg i.p.)	Inhibition of Eosinophilia ([3]; 10 mg/kg p.o.)	inhibition at 1 µM ([1]; concentration 1.0 μmole/L)
O=C(Nc1c(Cl)cncc1Cl)C(=O)c1cn(Cc2ccc(F)cc2)c2ncccc12 [Example 14]	92%	80%	62%	59%	–
CC(C)Cn1cc(C(=O)C(=O)Nc2c(Cl)cncc2Cl)c2cccnc21 [Example 27]	–	52%	50%	70%	91%

Reference: patent US7169787B2, “7-azaindoles, use thereof as phosphodiesterase 4 inhibitors and method for producing the same” (Elbion AG, priority 2000, dated 2007)
